Results as given in patent publication US20240082282A1 (priority 2020, published 2024).
pKd: −log10 of the molar value. Like-named read-outs stand apart in the source and are kept apart here.

Legend:
Escherichia coli MG1655 = format: cell-based
[1] = system: Borrelia burgdorferi BbP1286
[2] = system: Brachyspira (formerly Treponema) hyodysenteriae; conditions: report of a group from Japan; cited from earlier work
[3] = system: Borrelia burgdorferi (B31, N40, 297); format: cell-based
FaDu = conditions: alamar blue, 72 hours
[4] = system: E. coli ΔtolC-Pore (no efflux, hyperporinated); assay: MIC of E. coli mutant strains
B. turcica KLEX1 = assay: MIC of hygromycin A resistant mutant; format: cell-based
[5] = system: Lactobacillus reuteri ATCC 23272; format: cell-based
E. coli ribosomes = assay: Toeprinting / in vitro translation, affinity to ribosome; format: biochemical
[6] = system: Bacteroides ovatus KLE 2306; format: cell-based; conditions: Bacteroides ovatus KLE 2306, anaerobic, stool isolate
[7] = system: Borreliella burgdorferi N40; conditions: Borreliella burgdorferi N40, microaerophilic
[8] = system: B. burgdorferi overexpressing bmpD (Bb1286+pJSB275m_bmpD); assay: MIC of B. burgdorferi overexpressing bmpD; format: cell-based
Treponema pallidum = assay: MIC, T. pallidum in co-culture with rabbit Sf1Ep cells
[9] = system: Enterobacter cloacae ATCC 13047; format: cell-based; conditions: Enterobacter cloacae ATCC 13047, anaerobic
B. burgdorferi N40 [10] = assay: Mouse infection model (IP injection, oral gavage); conditions: for B. burgdorferi culture (% positive) / Mean # of B. burgdorferi/10 mg of skin tissue (qPCR): twice a day for 5 days; for Culture positive (%): C3H, 5 days, whole ear culture; for B. burgdorferi culture from mice: oral gavage twice per day
[11] = system: Bacteroides vulgatus KLE 2381; format: cell-based; conditions: Bacteroides vulgatus KLE 2381, anaerobic, stool isolate
Borreliella miyamotoi = conditions: Borreliella miyamotoi, microaerophilic
[12] = system: GFP-inducible B. burgdorferi strain pCRW53; assay: Measurement of protein synthesis inhibition (GFP, FACS); format: cell-based
[13] = system: Streptococcus sanguinis KLE 2374; format: cell-based; conditions: Streptococcus sanguinis KLE 2374, anaerobic, stool isolate
[14] = system: Brevinema andersonii ATCC 43811; conditions: Brevinema andersonii ATCC 43811, microaerophilic
[15] = system: Alkalispirochaeta americana DSM 14872
B. burgdorferi N40 [16] = assay: Bait experiment in infected mice; format: in vivo, C3H mice
Procedure: Mice were infected with B. burgdorferi.
To prepare the mouse bait, 2 g of Bait formulation 3 (Food source), 0.5 g freshly ground peanut butter (Whole foods), 35 μl of green food coloring mix (Whole foods) were added into a 60 mm Petri dish. Boiling water (4 mL) was added and mixed with a spatula. The mixture was then dispensed into wells of a 96 well plate with a spatula such that about ⅔rd of the well was full. Antibiotics or vehicle were added at appropriate volume and mixed with a pipette tip. Added volume was kept below 60 μL per well. The bait was allowed to air dry/solidify for a few hours and the prepared baits were stored at 4° C. until use.
To ensure that the bait would be consumed, mice were housed individually with their mouse chow withheld during treatment. The doses used in mice were matched to the pharmacokinetic profile of humans given ceftriaxone 1 g every 12 hours (Sai Life Sciences Ltd, India) and doxycycline 100 mg every 12 hours.
Skin was used for liquid culture, and RNA extraction. All other tissues were used for RNA extraction. The growth of B. burgdorferi in 10 day liquid cultures was detected by dark field microscopy with a 100× objective.

[17] = system: Parabacteroides merdae KLE 2238; format: cell-based; conditions: Parabacteroides merdae KLE 2238, anaerobic, stool isolate
[18] = system: E. coli WT-Pore (hyperporinated); assay: MIC of E. coli mutant strains
[19] = system: FaDu, HepG2 and HEK293-RFP cells; conditions: a number of human cell lines
HepG2 = conditions: HepG2, alamar blue, 72 hours
[20] = system: Staphylococcus aureus HG003; format: cell-based
[21] = 200 mg/kg, bait once a day for 5 days

Hygromycin A
MIC (Escherichia coli MG1655): 128 µg | Minimum inhibitory concentration (MIC) (Escherichia coli MG1655): 128 µg/mL | Maximal non-toxic dose tested relative to minimal efficacious dose (500 mg/kg vs minimal efficacious dose): 10 fold | Toxicity at maximal dose tested (C3H mice, 500 mg/kg, preliminary data): absence of toxicity | Signs of toxicity (any of the doses used in the efficacy experiments (IP, gavage, bait)): no signs of toxicity | Indications of toxicity (even at very high doses): no indications of toxicity | Biosafety window (preliminary testing): > 500 mg/kg | MIC ([1]; Borrelia burgdorferi BbP1286): 0.12 µg | Minimum inhibitory concentration (MIC) ([1]; Borreliella burgdorferi P1286, microaerophilic): 0.12 µg/mL | Activity against Brachyspira hyodysenteriae [2]: good activity | MIC ([3]; B. burgdorferi): 0.25 µg/mL | MIC ([3]; Borrelia burgdorferi (B31, N40, 297)): 0.25 µg | MIC ([3]; wild type B. burgdorferi (FIG. 7B)): 0.25 µg/mL | IC50 (FaDu): >512 µg/mL | MIC [4]: 16 µg/mL | MIC (Escherichia coli Nissle): >128 µg | MIC (B. turcica KLEX1; B. turcica KLEX1, stable hygromycin A resistance): 8 µg/mL | MIC increase as compared to wild type parent strain (B. turcica KLEX1; B. turcica KLEX1 vs parent): 16 fold | MIC ([5]; Lactobacillus reuteri): 32 µg | Minimum inhibitory concentration (MIC) ([5]; Lactobacillus reuteri ATCC 23272, anaerobic): 32 µg/mL | pKd (E. coli ribosomes; E. coli ribosomes, inferred from in vitro translation arrest, read-out: Kd of binding to the ribosome): > 8.00 | Arrest of in vitro translation of model ORFs (E. coli ribosomes; lowest concentration tested, 0.6 μM): complete arrest of translation | Minimum inhibitory concentration (MIC) [6]: 64 µg/mL | Minimum inhibitory concentration (MIC) [7]: 0.25 µg/mL | MIC ([8]; BmpD overexpressing B. burgdorferi (FIG. 7B)): 0.0625 µg/mL | Change of MIC on overexpression of bmpD in B. burgdorferi ([8]; normalized to wild-type B. burgdorferi, IPTG-independent): four-fold reduction | MIC (Treponema pallidum): 0.03 µg | Minimum inhibitory concentration (MIC) (Treponema pallidum): 0.03 µg/mL | MIC (Treponema pallidum; monitoring spirochetes in co-culture with rabbit cells): 0.03 µg/mL | Minimum inhibitory concentration (MIC) [9]: >128 µg/mL | B. burgdorferi culture (% positive) (B. burgdorferi N40 [10]; 25 mg/kg, oral gavage): 50% | Mean # of B. burgdorferi/10 mg of skin tissue (qPCR) (B. burgdorferi N40 [10]; 25 mg/kg, oral gavage): <1 B. burgdorferi/10 mg of skin t | B. burgdorferi culture (% positive) (B. burgdorferi N40 [10]; 50 mg/kg, oral gavage): 0% | Mean # of B. burgdorferi/10 mg of skin tissue (qPCR) (B. burgdorferi N40 [10]; 50 mg/kg, oral gavage): <1 B. burgdorferi/10 mg of skin t | B. burgdorferi culture (% positive) (B. burgdorferi N40 [10]; 70 mg/kg, oral gavage): 0% | Mean # of B. burgdorferi/10 mg of skin tissue (qPCR) (B. burgdorferi N40 [10]; 70 mg/kg, oral gavage): <1 B. burgdorferi/10 mg of skin t | B. burgdorferi culture (% positive) (B. burgdorferi N40 [10]; 75 mg/kg, IP injection): 0% | Mean # of B. burgdorferi/10 mg of skin tissue (qPCR) (B. burgdorferi N40 [10]; 75 mg/kg, IP injection): <1 B. burgdorferi/10 mg of skin t | B. burgdorferi culture (% positive) (B. burgdorferi N40 [10]; 250 mg/kg, oral gavage): 0% | Mean # of B. burgdorferi/10 mg of skin tissue (qPCR) (B. burgdorferi N40 [10]; 250 mg/kg, oral gavage): <1 B. burgdorferi/10 mg of skin t | Culture positive (%) (B. burgdorferi N40 [10]; intraperitoneal injection, daily dose 100 mg/kg/day): 0% | Culture positive (%) (B. burgdorferi N40 [10]; oral gavage, daily dose 50 mg/kg/day): 50% | Culture positive (%) (B. burgdorferi N40 [10]; oral gavage, daily dose 100 mg/kg/day): 0% | Culture positive (%) (B. burgdorferi N40 [10]; oral gavage, daily dose 140 mg/kg/day): 0% | Culture positive (%) (B. burgdorferi N40 [10]; oral gavage, daily dose 500 mg/kg/day): 0% | Clearance of infection (B. burgdorferi N40 [10]; IP injection twice a day, after 5 days of treatment, similarly to ceftriaxone control): cleared the infection | B. burgdorferi culture from mice (B. burgdorferi N40 [10]; 10 and 25 mg/kg): B. burgdorferi were cultured from mice | B. burgdorferi culture from mice (B. burgdorferi N40 [10]; doses higher than 25 mg/kg): not at any of the higher doses | PCR from ear, joint and heart tissue (B. burgdorferi N40 [10]; oral gavage, doses above 50 mg/kg): negative | Minimum inhibitory concentration (MIC) [11]: 64 µg/mL | Minimum inhibitory concentration (MIC) (Borreliella miyamotoi): 0.25 µg/mL | GFP level as compared to control (protein synthesis) [12]: dramatically lower level of GFP | Minimum inhibitory concentration (MIC) [13]: 16 µg/mL | Minimum inhibitory concentration (MIC) [14]: 2 µg/mL | MIC ([15]; Alkalispirochaeta americana): 0.5 µg | Minimum inhibitory concentration (MIC) ([15]; Alkalispirochaeta americana DSM 14872, anaerobic): 0.5 µg/mL | B. burgdorferi culture (% positive) (B. burgdorferi N40 [16]; [21]): 0% | Mean # of B. burgdorferi/10 mg of skin tissue (qPCR) (B. burgdorferi N40 [16]; [21]): <1 B. burgdorferi/10 mg of skin t | Culture positive (%) (B. burgdorferi N40 [16]; C3H, bait, daily dose 100 mg/kg/day, 5 days, whole ear culture): 0% | Clearance of B. burgdorferi infection by consuming baits (B. burgdorferi N40 [16]; baits, FIG. 10): efficiently cleared | Minimum inhibitory concentration (MIC) [17]: 16 µg/mL | MIC [18]: 512 µg/mL | EC50 (cytotoxicity) [19]: > 512 | IC50 (HepG2): >512 µg/mL | Activity against S. aureus, times lower compared to B. burgdorferi ([20]; S. aureus used in the counter-screen vs B. burgdorferi): 64 times | MIC ([20]; Staphylococcus aureus): 8 µg | Minimum inhibitory concentration (MIC) ([20]; Staphylococcus aureus HG003): 8 µg/mL
